These results are taken from ChEMBL document CHEMBL1157539, “Thousands of chemical starting points for antimalarial lead identification” (Nature, 2010).

This experiment concerns Plasmodium falciparum. The experiment is described as follows: GSK_TCMDC: Inhibition of Plasmodium falciparum 3D7 in whole erythrocytes, using parasite LDH activity as an index of growth. The conditions noted are these: Plasmodium falciparum, 3D7. The class given is functional, organism-based.
`CCC(Cc1cnc2nc(N)nc(N)c2n1)c1ccc(C(=O)O)cc1` (stereo not given) had an XC50 of 250 nM.

On to `COCCN1CCC(N(Cc2ccc(-c3ccc(OC(F)(F)F)cc3)cc2)C(=O)Cn2c(CCc3cccc(F)c3F)cc(=O)c3ccccc32)CC1`, for which the XC50 was 1210 nM.

Regarding `CC(=O)Nc1ccc(OCCCCN(Cc2ccccc2C(F)(F)F)c2ccc(C#N)c(C(F)(F)F)c2)c(Cl)c1`, the XC50 is 981 nM.

Compound `CC(C)[C@H](NC(=O)c1ccc(O)c(-c2ccc(Cl)c(Cl)c2)c1)C(=O)NCCN(C)C` gave an XC50 of 1050 nM.

Take `CCN(CCN(C)C)Cc1ccc(-c2ccc(NS(=O)(=O)c3cccc(Cl)c3)cc2)cc1`: the XC50 is 523 nM.

With `COc1cccc(O)c1CN1CCC2(CCCN(Cc3ccc(F)cc3)C2)C1` (stereo not given), the XC50 was 865 nM.

For the compound `CC(C)(C)c1ccc(CNC(=O)c2ccc(-c3nc4cc(C(C)(C)C)ccc4[nH]3)cc2)cc1`, the XC50 turned out to be 840 nM.

With `Cc1c(CCC#N)c(NCc2ccccc2)n2c(nc3ccccc32)c1C#N`, the XC50 was found to be 876 nM.

Compound `Cc1cc(N2CCCC2)nc(NC(=N)Nc2cccc(C(F)(F)F)c2)n1` registered an XC50 of 315 nM.

The compound `O=C1C[C@@H]([S+]([O-])Cc2nccs2)N1CCOCCCCCCc1ccc(Cl)cc1` (stereo not given in full) returned an XC50 of 1020 nM.

Consider `O=C(Nc1cccc(C(F)(F)F)c1)c1cccc(S(=O)(=O)NC2CCN(CC3CCCCC3)C2)c1` (stereo not given), for which the XC50 amounted to 588 nM.

`Cc1[nH]c(C)c(-c2ccc(-c3ccc(F)cc3)nc2)c(=O)c1Br`: the XC50 was 248 nM.

The compound `Nc1nc(N)c2c(ccc3nn(Cc4cccnc4)cc32)n1` came in with an XC50 of 355 nM.

`COc1ccccc1N1CCN(C(C(=O)NCc2ccc3c(c2)OCO3)c2ccc3c(c2)OCCCO3)CC1` (stereo not given) came in with an XC50 of 1120 nM.

For the compound `Cc1cc2nc(N=C3NC4(c5ccccn5)NC(=Nc5nc6cc(C)c(C)cc6[nH]5)NC4(c4ccccn4)N3)[nH]c2cc1C` (stereo not given), the XC50 stood at 683 nM.

The compound `COc1cc(NC(=O)/C=C/c2ccccc2OC(F)(F)F)cc(OCCN2CCC(O)(c3ccccc3)CC2)c1` came in with an XC50 of 285 nM.

For the compound `O=C(NCCCCN1CCC(O)(c2ccc(Cl)cc2)CC1)c1ccc(Br)cc1`, the XC50 turned out to be 1250 nM.

As to `CC(C(=O)N1CCCC1)N1CCN(C(c2ccccc2)c2ccccc2)CC1` (stereo not given), the XC50 stood at 1100 nM.

For the compound `COCCNCc1ccc(-c2cccc(CN(C(=O)NCCc3ccccc3)C3CCN(Cc4ccccc4)CC3)c2)cc1`, the XC50 turned out to be 918 nM.

Regarding `Cc1n[nH]c2cc(Nc3ccnc(Nc4ccc(CN5CCOCC5)cc4)n3)ccc12`, the XC50 was found to be 950 nM.

`CNC(=O)C1Cc2c([nH]c3ccc(Cl)cc23)C2(CCN(CCc3ccccc3)CC2)N1` (stereo not given) had an XC50 of 893 nM.

`CCC(=O)c1ccc(-c2ccc(=O)n(CC(=O)N(CCN(CC)CC)Cc3ccc(-c4ccc(C(F)(F)F)cc4)cc3)n2)cc1` yielded an XC50 of 715 nM.

`CCn1ncc(Cl)c1CN(C)S(=O)(=O)c1ccc2ccccc2c1` showed an XC50 of 818 nM.

The compound `CC(C)c1ccc(NC(=O)c2ccc(C(=O)NC3CCN(CC4CCCCC4)C3)cc2)cc1` (stereo not given) yielded an XC50 of 792 nM.

In turn, `CS(=O)(=O)c1ccc(-c2cnc(N)c(-c3cccc(O)c3)c2)cc1` displayed an XC50 of 695 nM.

The compound `O=C(NC1CC1)c1cnc(N2CCCC(c3ccccc3)C2)c(Cl)c1` (stereo not given) displayed an XC50 of 797 nM.

In the case of `CCN(CCCN1CCCCC1)c1nc(C)cc(Nc2ccc(Cl)cc2)n1`, the XC50 came to 837 nM.

The compound `CC(C)CNCc1cccc(-c2cccc(CN(CCN(C)C)C(=O)Nc3ccccc3)c2)c1` returned an XC50 of 795 nM.

As to `COc1ccc(Nc2nccc(NCCNC(=O)c3cc4ccccc4s3)n2)cc1`, the XC50 was found to be 1020 nM.

Consider `Cc1[nH]c2ccccc2c1C1=CCN(CCN2CCCc3c(Br)cccc3C2=O)CC1`, for which the XC50 is 659 nM.

Compound `CN(C)CCCOc1cccc(NC(=O)Nc2ccc(Cl)c(Cl)c2)c1` returned an XC50 of 956 nM.

`CCOc1ccc(CCCON2C(=N)N=C(N)NC2(C)C)cc1` came in with an XC50 of 3.2 nM.

`O=C(NCCCCN1CCN(c2cccc(Cl)c2Cl)CC1)c1ccc2c(c1)CCN(C1CCC1)CC2` returned an XC50 of 747 nM.

Compound `Cc1nnsc1C(=O)Nc1cccc(-c2ccc(-c3nc4ccccc4[nH]3)cc2)c1` had an XC50 of 870 nM.

On to `O=C(/C=C/c1ccc(Cl)c(Cl)c1)NC1CCC(N2CCC(c3c[nH]c4ccc(O)cc34)CC2)CC1` (stereo not given), for which the XC50 was found to be 921 nM.

For the compound `COc1ccc(COc2c(OC)cc(Cc3cnc(N)nc3N)cc2OC)cc1`, the XC50 came out at 912 nM.

Consider `N#Cc1ccc(CN2CCC(Oc3ccc(NC(=O)c4cccs4)cc3)C2)cc1` (stereo not given), for which the XC50 was 953 nM.

`O=C(NCCCCCN1CCC(c2c[nH]c3ccccc23)CC1)Nc1ccc(Br)cc1` returned an XC50 of 925 nM.

For the compound `CCCCN1CCN(CC(O)CNC(=O)Nc2ccc(Cl)cc2)CC1` (stereo not given), the XC50 came out at 68.5 nM.

For the compound `Fc1c(CNCC2CCN(CC3CCCCC3)CC2)cccc1C(F)(F)F`, the XC50 amounted to 900 nM.

With `COc1ccc(Br)cc1C1C2C(=O)N(c3ccc(Br)cc3)C(=O)C2C2(C(=O)O)CC(OCc3ccccc3)CN12` (stereo not given), the XC50 is 195 nM.

With `O=C(Nc1cccc(C(F)(F)F)c1)Nc1ccc(F)c([N+](=O)[O-])c1`, the XC50 is 696 nM.

Turning to `Oc1ccc2c(c1NCC1CCCCC1)CCCC2`, the XC50 is 514 nM.

The compound `O=C(Nc1ccccc1)c1nn(CCCN2CCC(N3CCCC3)CC2)cc1-c1ccc(Cl)c(Cl)c1` showed an XC50 of 240 nM.

In turn, `CC(C)c1ncc(-c2ccncc2)c(C2CCC(CNC(=O)c3ccncc3)CC2)n1` (stereo not given) displayed an XC50 of 1350 nM.

For the compound `Cc1cnc(Nc2cccc(CCN3CCOCC3)c2)nc1NC(C)C`, the XC50 was 738 nM.

`O=C(Nc1ccc(Cl)cc1)N(CC1CC2CCC(C1)N2Cc1ccc(C(F)(F)F)cc1)c1ccc(N2CCOCC2)c(F)c1` (stereo not given): the XC50 was determined as 1070 nM.

The compound `Clc1ccc(Cn2nc(Br)nc2Br)c(Cl)c1` showed an XC50 of 439 nM.

`CCN(CC)CCCC(C)Nc1c(-c2ccc(Br)cc2)cnc2ccccc12` (stereo not given): the XC50 amounted to 703 nM.

With `CCCCCCn1c(Sc2ccc(C#N)c([N+](=O)[O-])c2)nnc1-c1ccccc1`, the XC50 turned out to be 772 nM.

In the case of `CCC[C@@H]([C@@H](CC(C)C)C(=O)N[C@@H](CCCCNC(=O)OCc1ccccc1)C(=O)Nc1ncccn1)N(O)C=O`, the XC50 came out at 59.1 nM.

On to `CCc1ccc(NC(=O)c2ccc(CN3CCCN(CCC(C)C)CC3)cc2)cc1`, for which the XC50 came to 632 nM.

Turning to `CS(=O)(=O)Nc1cccc(-c2cnc3[nH]cc(-c4ccc(C(=O)O)cc4)c3c2)c1`, the XC50 came out at 857 nM.

On to `O=C(NC1CCCCN(Cc2ccccc2O)C1)c1cccc(C(F)(F)F)c1` (stereo not given), for which the XC50 is 795 nM.

With `CN(CCCNC(=S)NC12CC3CC(CC(C3)C1)C2)CCCNc1ccnc2cc(Cl)ccc12`, the XC50 was found to be 121 nM.

Compound `CC[C@H]1CN2CC[C@H]1C[C@@H]2[C@@H](O)c1cc(Cl)nc2ccc(OC)cc12` came in with an XC50 of 63.5 nM.

With `COc1cccc(CNC[C@@H](O)[C@H](Cc2ccccc2)NC(=O)c2cc3c4c(c2)c(C(C)C)cn4CCS(=O)(=O)N3C)c1`, the XC50 worked out at 154 nM.

`COc1cccc(NC(=O)Nc2cc(C)nc3ccccc23)c1` had an XC50 of 723 nM.

`O=C(Cn1c(SCc2cccc(F)c2F)cc(=O)c2ccccc21)N(CCn1ccnc1)Cc1ccc(-c2ccc(C(F)(F)F)cc2)cc1` yielded an XC50 of 770 nM.

For `CCc1nc(N)nc(N)c1-c1ccc(F)cc1`, the XC50 is 407 nM.

As to `CC(=O)Nc1ccc(S(=O)(=O)N(Cc2cccc(Oc3ccccc3)c2)C2CCN(C/C=C(\C)CCC=C(C)C)CC2)cc1`, the XC50 was 192 nM.

Take `O=C(NCC1CCN(Cc2ccc(F)cc2)C1)c1cc(-c2cccc(C(F)(F)F)c2)cs1` (stereo not given): the XC50 is 960 nM.

With `Nc1oc2c(CN3CCCCCC3)c(O)ccc2c(=O)c1-c1nc2ccccc2s1`, the XC50 came out at 516 nM.

`COc1ccccc1CNc1ncc(-c2ccsc2)c(-c2nccs2)n1` yielded an XC50 of 333 nM.

On to `CN(C)CCN(C)Cc1ccc(-c2ccc(NC(=O)c3cccc(C#N)c3)cc2)cc1`, for which the XC50 turned out to be 1270 nM.

In turn, `O=C(NCCCCN1CCC(C(c2ccccc2)c2ccccc2)CC1)c1ccc(NC(=O)c2ccc(Cl)cc2)cc1` showed an XC50 of 769 nM.

As for `CCN(CC)CCCN(CCCN(CC)CC)c1cc(C)nc(Nc2ccc(Br)cc2)n1`, the XC50 was found to be 200 nM.

Turning to `CC(C)CCCC(C)(C)NC[C@@H](O)[C@H](Cc1ccccc1)NC(=O)c1cc(NC(C)C)cc(N2CCCCS2(=O)=O)c1F`, the XC50 stood at 219 nM.

Regarding `CC(C)(C)c1ccc(-c2cc(C(=O)N[C@@H](CO)C(=O)O)on2)cc1.CC(C)(C)c1ccc(-c2nocc2C(=O)N[C@@H](CO)C(=O)O)cc1`, the XC50 came out at 966 nM.

Turning to `COCCOc1cc(C)c(C2CCN(CCCCNC(=O)c3ccc(NC(=O)c4ccc(Cl)cc4)cc3)CC2)cc1C`, the XC50 came out at 951 nM.

The compound `Clc1ncnc2scc(-c3ccc(Br)cc3)c12` showed an XC50 of 886 nM.

`COc1ccc(Nc2nc(N3CCCC3)c3ccccc3n2)cc1` yielded an XC50 of 750 nM.

Compound `CCCCCCOc1ccc(C(=O)N[C@H]2CCN(CCCCCNC(=O)/C=C/c3ccc(Cl)c(Cl)c3)C2)cc1` displayed an XC50 of 695 nM.

Regarding `CC(C)NCc1ccc(-c2cccc(-c3nc4cc(C(F)(F)F)ccc4[nH]3)c2)cc1`, the XC50 was 262 nM.

`COC(=O)c1cccc(CNCc2ccc(-c3ccc(-c4nc5cc(F)ccc5[nH]4)s3)cc2)c1` registered an XC50 of 588 nM.

For the compound `Fc1ccc2[nH]cc(CCN3CCC(CNCc4ccccc4)CC3)c2c1`, the XC50 was 33 nM.

`Cc1onc(-c2ccccc2)c1-c1nc(NCCC(c2ccccc2)c2ccccc2)no1` showed an XC50 of 835 nM.

Consider `O=C(NCCCCN1CCN(c2cccc3c2CCCC3)CC1)c1ccc(NC(=O)c2ccc(Cl)cc2)cc1`, for which the XC50 was 447 nM.

As for `Clc1ccc(-c2csc3ncnc(Cl)c23)cc1`, the XC50 stood at 460 nM.

For `O=[N+]([O-])c1cnc(Nc2ccccc2O)nc1Nc1ccccc1O`, the XC50 came to 897 nM.

On to `COc1cccc2c1CCN(CCN1CCC(NC(=O)c3ccc(-c4cccc(Cl)c4Cl)cc3)CC1)C2`, for which the XC50 came to 699 nM.

Regarding `Cc1nc(SCC(=O)N2CCCC2=O)c2c(C)c(C)sc2n1`, the XC50 came to 170 nM.

`CS(=O)(=O)c1ccc2c(c1)CCN(CCC1CCC(NC(=O)c3cc4cccc(Br)c4[nH]3)CC1)CC2` (stereo not given) yielded an XC50 of 1040 nM.

As for `C[C@@H]([C@@H](CCCCc1ccccc1)C(=O)N[C@H](C(=O)Nc1cccnc1)C(C)(C)C)N(O)C=O`, the XC50 amounted to 929 nM.

`COc1ccc(C(=O)CCC(=O)N(Cc2ccc(-c3ccc(CNCCc4ccccc4)cn3)cc2)C(C)CN(C)C)cc1F` (stereo not given): the XC50 was found to be 747 nM.
